Test results reported in PubChem BioAssay (NCI).
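48-hour exposure; five concentrations; linearly interpolated endpoints. The concentration for 50% growth inhibition is given as GI50. TGI is the concentration that stops growth completely.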

Key:
Assay in all cases: inhibition of tumour cell growth, NCI panel, 48 h
[1] = test system: 786-0 renal
[2] = test system: A498 renal
[3] = test system: A549 NSCLC
[4] = test system: ACHN renal
[5] = test system: BT-549 breast
[6] = test system: CCRF-CEM leukemia
[7] = test system: COLO 205 colon
[8] = test system: DU-145 prostate
[9] = test system: EKVX NSCLC
[10] = test system: HCC-2998 colon
[11] = test system: HCT-116 colon
[12] = test system: HCT-15 colon
[13] = test system: HL-60(TB) leukemia
[14] = test system: HOP-62 NSCLC
[15] = test system: HOP-92 NSCLC
[16] = test system: HS 578T breast
[17] = test system: HT29 colon
[18] = test system: IGROV1 ovarian
[19] = test system: K-562 leukemia
[20] = test system: KM12 colon
[21] = test system: LOX IMVI melanoma
[22] = test system: M14 melanoma
[23] = test system: MALME-3M melanoma
[24] = test system: MCF7 breast
[25] = test system: MDA-MB-231 breast
[26] = test system: MDA-MB-435
[27] = test system: MOLT-4 leukemia
[28] = test system: NCI-H226 lung
[29] = test system: NCI-H23 lung
[30] = test system: NCI-H460 lung
[31] = test system: NCI-H522 lung
[32] = test system: NCI/ADR-RES ovarian
[33] = test system: OVCAR-3 ovarian
[34] = test system: OVCAR-4 ovarian
[35] = test system: OVCAR-5 ovarian
[36] = test system: OVCAR-8 ovarian
[37] = test system: PC-3 prostate
[38] = test system: RPMI-8226 leukemia
[39] = test system: RXF 393 renal
[40] = test system: SF-268 CNS
[41] = test system: SF-295 CNS
[42] = test system: SF-539 CNS
[43] = test system: SK-MEL-2 melanoma
[44] = test system: SK-MEL-28 melanoma
[45] = test system: SK-MEL-5 melanoma
[46] = test system: SK-OV-3 ovarian
[47] = test system: SN12C renal
[48] = test system: SNB-19 CNS
[49] = test system: SNB-75 CNS
[50] = test system: SR leukemia
[51] = test system: SW-620 colon
[52] = test system: T-47D breast
[53] = test system: TK-10 renal
[54] = test system: U251 CNS
[55] = test system: UACC-257 melanoma
[56] = test system: UACC-62 melanoma
[57] = test system: UO-31 renal

In the case of `Clc1ccc2c(NCCCCNc3nc(N4CCOCC4)nc4ccccc34)ccnc2c1`, the GI50 [1] is reported as 2.28 µM, the TGI [1] is reported as 5.94 µM and the GI50 [2] is reported as 1.83 µM. For the same molecule, the TGI [2] was 4.28 µM, the GI50 [3] was 3.16 µM and the TGI [3] was 11.3 µM. For the same molecule, the GI50 [4] was 1.9 µM, the TGI [4] was 3.6 µM and the GI50 [5] was 2.96 µM. The TGI [5] was 9.42 µM, the GI50 [6] was 3.42 µM and the TGI [6] was 9.38 µM. For the same molecule, the GI50 [7] was 1.87 µM, the TGI [7] was 4.49 µM and the GI50 [8] was 4.62 µM. It also gave a TGI [8] of 16.5 µM, a GI50 [9] of 3.7 µM and a TGI [9] of 15.3 µM. For the same molecule, the GI50 [10] was 3.81 µM, the TGI [10] was 14 µM and the GI50 [11] was 2.13 µM. For the same molecule, the TGI [11] was 4.63 µM, the GI50 [12] was 2.75 µM and the TGI [12] was 11.4 µM. For the same molecule, the GI50 [13] was 2.27 µM, the TGI [13] was 4.3 µM and the GI50 [14] was 2.17 µM. The TGI [14] was 5.67 µM, the GI50 [15] was 1.88 µM and the TGI [15] was 4.29 µM. The GI50 [16] was 2.25 µM, the TGI [16] was 7.66 µM and the GI50 [17] was 2.61 µM. It also gave a TGI [17] of 7.14 µM, a GI50 [18] of 2.99 µM and a TGI [18] of 11.5 µM. For the same molecule, the GI50 [19] was 1.43 µM, the TGI [19] was 11.2 µM and the GI50 [20] was 3.52 µM. For the same molecule, the TGI [20] was 12.4 µM, the GI50 [21] was 1.73 µM and the TGI [21] was 3.25 µM. For the same molecule, the GI50 [22] was 2 µM, the TGI [22] was 3.91 µM and the GI50 [23] was 2.05 µM. For the same molecule, the TGI [23] was 3.89 µM, the GI50 [24] was 3.81 µM and the TGI [24] was 17.7 µM. The GI50 [25] was 2.1 µM, the TGI [25] was 4.5 µM and the GI50 [26] was 2.4 µM. The TGI [26] was 6.18 µM, the GI50 [27] was 3.59 µM and the TGI [27] was 14 µM. For the same molecule, the GI50 [28] was 1.72 µM, the TGI [28] was 3.68 µM and the GI50 [29] was 5.68 µM. The TGI [29] was 23.2 µM, the GI50 [30] was 2.22 µM and the TGI [30] was 5.22 µM. The GI50 [31] was 2.34 µM, the TGI [31] was 5.6 µM and the GI50 [32] was 4.88 µM. It also gave a TGI [32] of 20.6 µM, a GI50 [33] of 1.93 µM and a TGI [33] of 3.7 µM. The GI50 [34] was 2.2 µM, the TGI [34] was 5.52 µM and the GI50 [35] was 3.36 µM. It also gave a TGI [35] of 12 µM, a GI50 [36] of 3.53 µM and a TGI [36] of 10.6 µM. It also gave a GI50 [37] of 6.37 µM, a TGI [37] of 19.5 µM and a GI50 [38] of 2.8 µM. For the same molecule, the TGI [38] was 7.21 µM, the GI50 [39] was 1.65 µM and the TGI [39] was 3.73 µM. The GI50 [40] was 3.29 µM, the TGI [40] was 13.7 µM and the GI50 [41] was 1.79 µM. For the same molecule, the TGI [41] was 3.73 µM, the GI50 [42] was 1.8 µM and the TGI [42] was 3.39 µM. For the same molecule, the GI50 [43] was 2.23 µM, the TGI [43] was 5.02 µM and the GI50 [44] was 2.03 µM. It also gave a TGI [44] of 4.03 µM, a GI50 [45] of 1.83 µM and a TGI [45] of 3.3 µM. The GI50 [46] was 3.03 µM, the TGI [46] was 9.97 µM and the GI50 [47] was 2.03 µM. It also gave a TGI [47] of 4.31 µM, a GI50 [48] of 3.37 µM and a TGI [48] of 12.6 µM. The GI50 [49] was 1.33 µM, the TGI [49] was 3.03 µM and the GI50 [50] was 0.295 µM. The TGI [50] was 0.853 µM, the GI50 [51] was 2.65 µM and the TGI [51] was 12.5 µM. The GI50 [52] was 2.23 µM, the TGI [52] was 6.82 µM and the GI50 [53] was 1.92 µM. The TGI [53] was 3.61 µM, the GI50 [54] was 1.84 µM and the TGI [54] was 3.66 µM. For the same molecule, the GI50 [55] was 15.2 µM, the TGI [55] was 29.9 µM and the GI50 [56] was 1.92 µM. It also gave a TGI [56] of 3.48 µM, a GI50 [57] of 1.66 µM and a TGI [57] of 3.12 µM.
